Where a name gives a salt, the structure may show the parent alone.

The series can be described thus: Stability experiment of final compound: solid in sealed vial kept in oven, purity checked by UPLC. The conditions noted are these: for Stability Result Solid at 20° C./7day (purity) / Stability Result Solid at 100° C./1 day (purity): 10 mg solid in 4 mL vial with sealed cap; for Stability Result Solid at 20° C./7day (purity): 7 days; for Stability Result Solid at 20° C./7day (purity) / Stability Result Solid at 100° C./1 day (purity) / Initial Purity: purity by UPLC; for Stability Result Solid at 100° C./1 day (purity): oven 100° C.; for Initial Purity: solid before storage; for Stability of HCl salt compared with freebase form: conclusion in words from Table 2. The class given is physicochemical. An excerpt:
Stability Experiment of Final Compound of Formula (I)
Freebase of Example 4: 6-[5-cyano-6-fluoro-8-(methylamino)-4-[(3aS,6aS)-5-methyl-2,3,3a,4,6,6a-hexahydropyrrolo[2,3-c]pyrrol-1-yl]-9H-pyrido[2,3-b]indol-3-yl]-1-methyl-4-oxo-1,8-naphthyridine-3-carboxylic acid; initial purity: 99.16%
HCl salt compound (Example 4): 6-[5-cyano-6-fluoro-8-(methylamino)-4-[(3aS,6aS)-5-methyl-2,3,3a,4,6,6a-hexahydropyrrolo[2,3-c]pyrrol-1-yl]-9H-pyrido[2,3-b]indol-3-yl]-1-methyl-4-oxo-1,8-naphthyridine-3-carboxylic acid; hydrochloride; initial purity: 98.50%
Freebase of Example 8: 6-[5,6-difluoro-8-(methylamino)-4-[(3aS,6aS)-5-methyl-2,3,3a,4,6,6a-hexahydropyrrolo[2,3-c]pyrrol-1-yl]-9H-pyrido[2,3-b]indol-3-yl]-1-methyl-4-oxo-1,8-naphthyridine-3-carboxylic acid; initial purity: 97.96%
HCl salt compound (Example 8): 6-[5,6-difluoro-8-(methylamino)-4-[(3aS,6aS)-5-methyl-2,3,3a,4,6,6a-hexahydropyrrolo[2,3-c]pyrrol-1-yl]-9H-pyrido[2,3-b]indol-3-yl]-1-methyl-4-oxo-1,8-naphthyridine-3-carboxylic acid; hydrochloride; initial purity: 97.80%
Condition: 10 mg of compound in 4 mL vial with sealed cap. Keep in oven at certain temperature for certain days. Then, the purity of solid was checked by UPLC.

For `CNc1cc(F)c(C#N)c2c1[nH]c1ncc(-c3cnc4c(c3)c(=O)c(C(=O)O)cn4C)c(N3CC[C@H]4CN(C)C[C@H]43)c12` [Freebase of Example 4, 6-[5-cyano-6-fluoro-8-(methylamino)-4-[(3aS,6aS)-5-methyl-2,3,3a,4,6,6a-hexahydropyrrolo[2,3-c]pyrrol-1-yl]-9H-pyrido[2,3-b]indol-3-yl]-1-methyl-4-oxo-1,8-naphthyridine-3-carboxylic acid], the “Stability Result Solid at 20° C./7day (purity)” value worked out at 95.73%, the “Stability Result Solid at 100° C./1 day (purity)” value stood at 93.35% and the “Initial Purity” value came out at 99.16%.
For `CNc1cc(F)c(F)c2c1[nH]c1ncc(-c3cnc4c(c3)c(=O)c(C(=O)O)cn4C)c(N3CC[C@H]4CN(C)C[C@H]43)c12` [Freebase of Example 8, 6-[5,6-difluoro-8-(methylamino)-4-[(3aS,6aS)-5-methyl-2,3,3a,4,6,6a-hexahydropyrrolo[2,3-c]pyrrol-1-yl]-9H-pyrido[2,3-b]indol-3-yl]-1-methyl-4-oxo-1,8-naphthyridine-3-carboxylic acid] the same measures were 96.72%, 91.08% and 97.96%.
Turning to `CNc1cc(F)c(C#N)c2c1[nH]c1ncc(-c3cnc4c(c3)c(=O)c(C(=O)O)cn4C)c(N3CC[C@H]4CN(C)C[C@H]43)c12` [HCl salt compound (Example 4), 6-[5-Cyano-6-fluoro-8-(methylamino)-4-[(3aS,6aS)-5-methyl-2,3,3a,4,6,6a-hexahydropyrrolo[2,3-c]pyrrol-1-yl]-9H-pyrido[2,3-b]indol-3-yl]-1-methyl-4-oxo-1,8-naphthyridine-3-carboxylic acid; dihydrochloride], the “Stability of HCl salt compared with freebase form” value is given as “much more stable than its freebase form” and the “Initial Purity” value stood at 98.50%. For the setting “dihydrochloride”, the “Stability Result Solid at 20° C./7day (purity)” value amounted to 98.67% and the “Stability Result Solid at 100° C./1 day (purity)” value came out at 98.48%.
For `CNc1cc(F)c(F)c2c1[nH]c1ncc(-c3cnc4c(c3)c(=O)c(C(=O)O)cn4C)c(N3CC[C@H]4CN(C)C[C@H]43)c12` [HCl salt compound (Example 8), 6-[5,6-Difluoro-8-(methylamino)-4-[(3aS,6aS)-5-methyl-2,3,3a,4,6,6a-hexahydropyrrolo[2,3-c]pyrrol-1-yl]-9H-pyrido[2,3-b]indol-3-yl]-1-methyl-4-oxo-1,8-naphthyridine-3-carboxylic acid; dihydrochloride] the same measures were “much more stable than its freebase form”, 97.80%, 97.78% and 97.77%.

(Values after patent publication US20230242553A1, “PROCESS FOR THE PREPARATION OF 1-METHYL-6-[6-R2-5-METHYL-8-(METHYLAMINO)-4-[ (3AS,6AS)-5-METHYL-2,3,3A,4,6,6A-HEXAHYDROPYRROLO[2,3-C]PYRROL-1-YL]-9H-PYRIDO[2,3-B]INDOL-3-YL]-4-OXO-1,8-NAPHTHYRIDINE-3-CARBOXYLIC ACID HYDROCHLORIDE” (Hoffmann-La Roche Inc., priority 2020, published 2023).)
